Structures can show the parent of a compound that is named as a salt.
Molecular target: T1, RET (Homo sapiens, UniProt P07949)
T1 construct: purchased Upstate 14-570MG
Assay: Inhibition of RET kinase activity, recombinant RET method (Kinase-Glo)
Type: biochemical
Conditions: RET 2 μg/ml, poly-EY4 substrate, 20 μM ATP, two hours at 30° C.
How it was run: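 Recombinant RET at 2 μg/ml in 20 mM MOPS/NaOH pH 7.0, 1 mM EDTA, 5% glycerol, 0.01% Brij35, 0.1% 2-mercaptoethanol, 1 mg/ml BSA; compounds 10 nM–30 μM final.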

T1 sequence (P07949 29-1114): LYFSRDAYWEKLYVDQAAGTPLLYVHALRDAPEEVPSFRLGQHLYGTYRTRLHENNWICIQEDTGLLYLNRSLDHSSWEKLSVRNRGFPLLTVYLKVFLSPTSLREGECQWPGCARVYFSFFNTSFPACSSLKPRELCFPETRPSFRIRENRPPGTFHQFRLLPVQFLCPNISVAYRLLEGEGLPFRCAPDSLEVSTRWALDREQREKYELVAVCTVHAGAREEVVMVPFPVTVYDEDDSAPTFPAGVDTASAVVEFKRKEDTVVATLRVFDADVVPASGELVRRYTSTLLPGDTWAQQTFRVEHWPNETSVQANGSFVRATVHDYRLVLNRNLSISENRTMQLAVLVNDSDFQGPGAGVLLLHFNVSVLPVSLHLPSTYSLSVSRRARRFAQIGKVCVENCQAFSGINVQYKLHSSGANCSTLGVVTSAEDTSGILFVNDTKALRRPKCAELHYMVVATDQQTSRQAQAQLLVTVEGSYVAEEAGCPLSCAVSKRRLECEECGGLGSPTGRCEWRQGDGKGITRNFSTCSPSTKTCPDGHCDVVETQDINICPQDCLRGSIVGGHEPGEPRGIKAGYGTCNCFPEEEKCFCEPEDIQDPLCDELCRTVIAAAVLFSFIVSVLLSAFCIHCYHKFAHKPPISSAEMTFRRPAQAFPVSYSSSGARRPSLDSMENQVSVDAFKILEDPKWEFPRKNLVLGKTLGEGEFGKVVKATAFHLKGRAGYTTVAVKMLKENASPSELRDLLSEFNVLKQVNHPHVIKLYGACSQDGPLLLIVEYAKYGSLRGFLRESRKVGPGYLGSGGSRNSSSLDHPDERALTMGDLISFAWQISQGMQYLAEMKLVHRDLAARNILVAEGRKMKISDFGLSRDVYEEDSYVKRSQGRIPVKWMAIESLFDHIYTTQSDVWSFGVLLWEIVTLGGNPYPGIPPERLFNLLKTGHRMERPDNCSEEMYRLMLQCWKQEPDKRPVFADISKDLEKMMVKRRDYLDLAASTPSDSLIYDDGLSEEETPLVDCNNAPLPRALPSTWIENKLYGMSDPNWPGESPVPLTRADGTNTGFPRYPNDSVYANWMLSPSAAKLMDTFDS

IC50 [nM] | Structure (SMILES)
100 to 1000 | C#CCN(C[C@@H]1CCCN1C)S(=O)(=O)c1ccc2[nH]c(=O)c3[nH]cc(C(=O)OCCC)c3c2c1 [Compound 151, (S)-8-[(1-Methyl-pyrrolidin-2-ylmethyl)-prop-2-ynyl-sulfamoyl]-4-oxo-4,5-dihydro-3H-pyrrolo[2,3-c]quinoline-1-propyl carboxylate]
100 to 1000 | CCOC(=O)c1c[nH]c2c(=O)[nH]c3ccc(S(=O)(=O)N(C)C)cc3c12 [Compound 26, 8-Dimethylsulfamoyl-4-oxo-4,5-dihydro-3H-pyrrolo[2,3-c]quinoline-1-ethyl carboxylate]
10000 to 100000 | NC(=O)c1c[nH]c2c(=O)[nH]c3ccccc3c12 [Compound 90, 4-Oxo-4,5-dihydro-3H-pyrrolo[2,3-c]quinoline-1-carboxamide]
100 to 1000 | CCOC(=O)c1c[nH]c2c(=O)[nH]c3ccc(S(=O)(=O)Nc4cccc(C)c4)cc3c12 [Compound 5, 4-Oxo-8-m-tolylsulfamoyl-4,5-dihydro-3H-pyrrolo[2,3-c]quinoline-1-ethyl carboxylate]
100 to 1000 | CCOC(=O)c1c[nH]c2c(=O)[nH]c3ccc(NS(=O)(=O)c4ccc(Cl)cc4)cc3c12 [Compound 40, 8-(4-Chloro-benzenesulfonylamino)-4-oxo-4,5-dihydro-3H-pyrrolo[2,3-c]quinoline-1-ethyl carboxylate]
100 to 1000 | CCOC(=O)c1c[nH]c2c(=O)[nH]c3ccc(NS(=O)(=O)Cc4ccccc4)cc3c12 [Compound 39, 4-Oxo-8-phenylmethanesulfonylamino-4,5-dihydro-3H-pyrrolo[2,3-c]quinoline-1-ethyl carboxylate]
100 to 1000 | CCOC(=O)c1c[nH]c2c(=O)[nH]c3ccc(-c4csc(NC(=O)C5CC5)n4)cc3c12 [Compound 275, 8-[2-(Cyclopropanecarbonyl-amino)-thiazol-4-yl]-4-oxo-4,5-dihydro-3H-pyrrolo[2,3-c]quinoline-1-ethyl carboxylate]
100 to 1000 | CCOC(=O)c1c[nH]c2c(=O)[nH]c3ccc([S+]([O-])Cc4ccccc4)cc3c12 (centres unmarked) [Compound 198, 4-Oxo-8-phenylmethanesulfinyl-4,5-dihydro-3H-pyrrolo[2,3-c]quinoline-1-ethyl carboxylate]
10000 to 100000 | CN(c1ccc(F)cc1)S(=O)(=O)c1ccc2[nH]c(=O)c3[nH]cc(C(=O)OCCCN)c3c2c1 [Compound 107, Trifluoroacetate of 8-[(4-fluorophenyl)-methyl-sulfamoyl]-4-oxo-4,5-dihydro-3H-pyrrolo[2,3-c]quinoline-1-3-aminopropyl carboxylate]
100 to 1000 | CCOC(=O)c1c[nH]c2c(=O)[nH]c3ccc(-c4ccn(C)n4)cc3c12 [Compound 283, 8-(1-Methyl-1H-pyrazol-3-yl)-4-oxo-4,5-dihydro-3H-pyrrolo[2,3-c]quinoline-1-ethyl carboxylate]
1000 to 10000 | CC(C)OC(=O)c1c[nH]c2c(=O)[nH]c3ccccc3c12 [Compound 78, 4-Oxo-4,5-dihydro-3H-pyrrolo[2,3-c]quinoline-1-carboxylate isopropyl]
10000 to 100000 | CCOC(=O)c1c[nH]c2c(=O)[nH]c3ccc(S(=O)(=O)Nc4ccc(N5CCOCC5)cc4)cc3c12 [Compound 22, 8-(4-Morpholin-4-yl-phenylsulfamoyl)-4-oxo-4,5-dihydro-3H-pyrrolo[2,3-c]quinoline-1-ethyl carboxylate]
100 to 1000 | CCOC(=O)c1c[nH]c2c(=O)[nH]c3ccc(NS(=O)(=O)c4ccc([N+](=O)[O-])cc4)cc3c12 [Compound 53, 8-(4-Nitro-benzenesulfonylamino)-4-oxo-4,5-dihydro-3H-pyrrolo[2,3-c]quinoline-1-ethyl carboxylate]
10000 to 100000 | CCOC(=O)c1c[nH]c2c(=O)[nH]c3ccc(NS(=O)(=O)c4ccccc4Cl)cc3c12 [Compound 42, 8-(2-Chloro-benzenesulfonylamino)-4-oxo-4,5-dihydro-3H-pyrrolo[2,3-c]quinoline-1-ethyl carboxylate]
1000 to 10000 | CCOC(=O)c1c[nH]c2c(=O)[nH]c3ccc(C#Cc4ccccc4)cc3c12 [Compound 201, 4-Oxo-8-phenylethynyl-4,5-dihydro-3H-pyrrolo[2,3-c]quinoline-1-ethyl carboxylate]
1000 to 10000 | COC(=O)c1c[nH]c2c(=O)[nH]c3ccc(S(=O)(=O)NN4CCN(C)CC4)cc3c12 [Compound 193, 8-(4-Methyl-piperazin-1-ylsulfamoyl)-4-oxo-4,5-dihydro-3H-pyrrolo[2,3-c]quinoline-1-methyl carboxylate]

IC50 [nM] | Structure (SMILES)
100 to 1000 | CCCOC(=O)c1c[nH]c2c(=O)[nH]c3ccc(S(=O)(=O)N(CCO)CCO)cc3c12 [Compound 176, 8-[bis-(2-Hydroxy-ethyl)-sulfamoyl]-4-oxo-4,5-dihydro-3H-pyrrolo[2,3-c]quinoline-1-propyl carboxylate]
10000 to 100000 | O=C(NCC1CCCCC1)c1c[nH]c2c(=O)[nH]c3ccccc3c12 [Compound 82, N-(Cyclohexylmethyl)-4-oxo-4,5-dihydro-3H-pyrrolo[2,3-c]quinoline-1-carboxamide]
100 to 1000 | CCOC(=O)c1c[nH]c2c(=O)[nH]c3cc(Cl)c(-c4cccc(S(C)(=O)=O)c4)cc3c12 [Compound 257, 7-Chloro-8-(3-methanesulfonyl-phenyl)-4-oxo-4,5-dihydro-3H-pyrrolo[2,3-c]quinoline-1-ethyl carboxylate]
100 to 1000 | C#CCN(C)S(=O)(=O)c1ccc2[nH]c(=O)c3[nH]cc(C(=O)OCCC)c3c2c1 [Compound 134, 8-(Methyl-prop-2-ynyl-sulfamoyl)-4-oxo-4,5-dihydro-3H-pyrrolo[2,3-c]quinoline-1-propyl carboxylate]
1000 to 10000 | CN(c1ccc(F)cc1)S(=O)(=O)c1ccc2[nH]c(=O)c3[nH]cc(C(=O)OCCO)c3c2c1 [Compound 104, 8-[(4-Fluorophenyl)-methyl-sulfamoyl]-4-oxo-4,5-dihydro-3H-pyrrolo[2,3-c]quinoline-1-2-hydroxyethyl carboxylate]
100 to 1000 | CCOC(=O)c1c[nH]c2c(=O)[nH]c3ccc(-c4cc(S(C)(=O)=O)ccc4N)cc3c12 [Compound 251, 8-(2-Amino-5-methanesulfonyl-phenyl)-4-oxo-4,5-dihydro-3H-pyrrolo[2,3-c]quinoline-1-ethyl carboxylate]
100 to 1000 | CCOC(=O)c1c[nH]c2c(=O)[nH]c3ccc(NS(=O)(=O)c4cccc(Cl)c4)cc3c12 [Compound 41, 8-(3-Chloro-benzenesulfonylamino)-4-oxo-4,5-dihydro-3H-pyrrolo[2,3-c]quinoline-1-ethyl carboxylate]
10000 to 100000 | CCCN(C)C(=O)c1c[nH]c2c(=O)[nH]c3ccc(S(=O)(=O)N(C)C)cc3c12 [Compound 110, N-Methyl-N-propyl-8-dimethylsulfamoyl-4-oxo-4,5-dihydro-3H-pyrrolo[2,3-c]quinoline-1-carboxamide]
100 to 1000 | CCCOC(=O)c1c[nH]c2c(=O)[nH]c3ccc(S(=O)(=O)N(C)CCN4CCCC4)cc3c12 [Compound 137, 8-[Methyl-(2-pyrrolidin-1-yl-ethyl)-sulfamoyl]-4-oxo-4,5-dihydro-3H-pyrrolo[2,3-c]quinoline-1-propyl carboxylate]
100 to 1000 | CCOC(=O)c1c[nH]c2c(=O)[nH]c3ccc(S(=O)(=O)Nc4ccc(Cl)cc4)cc3c12 [Compound 11, 8-(4-Chlorophenylsulfamoyl)-4-oxo-4,5-dihydro-3H-pyrrolo[2,3-c]quinoline-1-ethyl carboxylate]
100 to 1000 | CCOC(=O)c1c[nH]c2c(=O)[nH]c3ccc(-c4ccno4)cc3c12 [Compound 281, 8-Isoxazol-5-yl-4-oxo-4,5-dihydro-3H-pyrrolo[2,3-c]quinoline-1-ethyl carboxylate]
< 100 | CCOC(=O)c1c[nH]c2c(=O)[nH]c3ccc(S(=O)(=O)N(C)c4ccc(F)cc4)cc3c12 [Compound 13, 8-[(4-Fluorophenyl)-N-methyl-sulfamoyl)-4-oxo-4,5-dihydro-3H-pyrrolo[2,3-c]quinoline-1-ethyl carboxylate]
100 to 1000 | CCOC(=O)c1c[nH]c2c(=O)[nH]c3ccc(C#CCN(C)CCC#N)cc3c12 [Compound 206, 8-{3-[(2-Cyano-ethylmethyl-amino]-prop-1-ynyl}-4-oxo-4,5-dihydro-3H-pyrrolo[2,3-c]quinoline-1-ethyl carboxylate]
1000 to 10000 | CCOC(=O)c1ccc(NS(=O)(=O)c2ccc3[nH]c(=O)c4[nH]cc(C(=O)OCC)c4c3c2)cc1 [Compound 14, 8-(4-Ethoxycarbonyl-phenylsulfamoyl)-4-oxo-4,5-dihydro-3H-pyrrolo[2,3-c]quinoline-1-ethyl carboxylate]
1000 to 10000 | O=C(c1ccccc1)c1c[nH]c2c(=O)[nH]c3ccccc3c12 [Compound 76, 1-Benzoyl-3,5-dihydro-pyrrolo[2,3-c]quinolin-4-one]
< 100 | CCCOC(=O)c1c[nH]c2c(=O)[nH]c3ccc(S(=O)(=O)N(C)CCN(C)C)cc3c12 [Compound 136, 8-[(2-Dimethylamino-ethyl)-methyl-sulfamoyl]-4-oxo-4,5-dihydro-3H-pyrrolo[2,3-c]quinoline-1-propyl carboxylate]

— patent publication US8426437B2, “Pyrroloquinoline derivatives and their use as protein kinases inhibitors” (Pierre Fabre Medicament, priority 2005, dated 2013)
